Measurements from patent US5254577A, “Aminomethyloxooxazolidinyl arylbenzene derivatives useful as antibacterial agents” (The Du Pont Merck Pharmaceutical Company, priority 1992, dated 1993).
≈ marks a conversion by molar mass, not a printed value. Structures can show the parent of a compound that is named as a salt. Where two headings read alike, the source gives them in different places.

Assays:
Escherichia coli = assay: In vitro broth microdilution, 24-hour minimal inhibitory concentration (MIC); format: cell-based; conditions: Mueller-Hinton broth; for MIC: read-out: Minimum Inhibitory Concentration
Source text: (§1) A standard microdilution method (National Committee for Clinical Standards. Tentative standard M7-T. Standard methods for dilution antimicrobial susceptibility tests for bacteria that grow aerobically. National Committee for Clinical Laboratory Standards, Villanova, Pa. 1982) with Mueller-Hinton broth is used to determine the 24-hour minimal inhibitory concentrations (MIC's) for test strains of Staphylococcus aureus and Escherichia coli.

Staphylococcus aureus [1] = assay: as above; format: cell-based; conditions: Mueller-Hinton broth; for MIC: read-out: Minimum Inhibitory Concentration
Source text: as §1

Staphylococcus aureus [2] = assay: In vivo activity against Staphylococcus aureus in an acute lethal mouse model; conditions: mice infected intraperitoneally, dosed 1 h and 4 h post-infection, survivors on seventh day
Description: The in vivo potency of these compounds is exemplified by the data summarized in Table X. Determinations of in vivo efficacy are performed by inoculating mice intraperitoneally with cultures of the infecting organism diluted to produce 100% mortality in control animals within twenty-four hours. The culture of S. aureus used to infect the animals was diluted to the required bacterial density using 5% aqueous hog gastric mucin. The compounds are dissolved or suspended in 0.25% aqueous Methocel® (Methocel®: Hydroxypropyl Methylcullulose, E15 Premium, Dow Chemical Company) for oral administration or sterile distilled water containing 5% dimethylsulfoxide (Fisher Scientific Company, Fairlawn, N.J.) for subcutaneous administration. The mice are dosed at one hour and at four hours post-infection. Mortality is recorded daily until test determination seven days post infection. The number of survivors in each treatment group on the seventh day after infection is used in the calculation of the ED50, the dose of compound that protects 50% of the mice (Litchfield,J. T. and Wildoxon. A simulated method for evaluating dose-effect experiments. J. Pharmacol Exp. Ther., 98:99-113, 1949).

[3] = Staphylococcus aureus, 168 h, Oral Administration, read-out: ED50
[4] = Staphylococcus aureus, sc, 168 h, Subcutaneous Administration, read-out: ED50

SMILES	MIC (Escherichia coli)	MIC (Staphylococcus aureus [1])	ED50 (Staphylococcus aureus [2]; [3])	ED50 (Staphylococcus aureus [2]; [4])	Minimum Inhibitory Concentration (Escherichia coli)	Minimum Inhibitory Concentration (Staphylococcus aureus [1])	ED50 (Staphylococcus aureus [2]; Oral Administration, 10080 min)	ED50 (Staphylococcus aureus [2]; Subcutaneous Administration, 10080 min)
CCc1ccc(-c2ccc(N3C[C@H](CNC(C)=O)OC3=O)cc2)cc1 [Example 114, (l)-N-[3-(4-(4'-Ethylphenyl)phenyl)-2-oxooxazolidin-5-ylmethyl]acetamide]	> 128 µg/mL	0.5 µg/mL (≈ 1.48 µM)	8.1 mg/kg	> 100 mg/kg				
CCCCCCCCNCc1ccc(-c2ccc(N3C[C@H](CNC(C)=O)OC3=O)cc2)cc1 [Example 49]	> 128 µg/mL	1 µg/mL (≈ 2.21 µM)	65.2 mg/kg	> 90 mg/kg				
CC(=O)NC[C@H]1CN(c2ccc(-c3ccc(C(O)C(C)CN4CCN(C)CC4)cc3)cc2)C(=O)O1 (some centres unmarked) [Example 64]	> 128 µg/mL	4 µg/mL (≈ 8.32 µM)	50 mg/kg	11 mg/kg				
CCCN(CCC)Cc1ccc(-c2ccc(N3C[C@H](CNC(C)=O)OC3=O)cc2)cc1 [Example 44, (l)-N-[3-(4-(4'-di-n-propylaminomethylphenyl)phenyl)-2-oxooxazolidin-5-ylmethyl]acetamide]	> 128 µg/mL	4 µg/mL (≈ 9.44 µM)	8.6 mg/kg	3.7 mg/kg				
CC(=O)NCC1CN(c2ccc(-c3ccc([N+](C)(C)[O-])cc3)cc2)C(=O)O1 (centres unmarked) [Example 116]	> 128 µg/mL	16 µg/mL (≈ 43.3 µM)		6.4 mg/kg				
CC(=O)NC[C@H]1CN(c2ccc(-c3ccc(C(C)=NOCC(=O)O)cc3)cc2)C(=O)O1 [Example 24, (l)-N-[3-(4-(4'-(1-Carboxymethoxyliminoethyl)phenyl)phenyl)-2-oxooxazolidin-5-ylmethyl]acetamide]	> 128 µg/mL	8 µg/mL (≈ 18.8 µM)	> 90 mg/kg	> 90 mg/kg				
CC(=O)NC[C@H]1CN(c2ccc(-c3cc(O)ccc3O)cc2)C(=O)O1 [Example 113, (l)-N-[3-(4-(2',5'-Dihydroxyphenyl)phenyl)-2-oxooxazolidin-5-ylmethyl]acetamide]	> 128 µg/mL	16 µg/mL (≈ 46.7 µM)	> 90 mg/kg	68.3 mg/kg				
CC(=O)NC[C@H]1CN(c2ccc(-c3ccc(C(O)CCN4CCN(C)CC4)cc3)cc2)C(=O)O1 (some centres unmarked) [Example 61]	> 128 µg/mL	2 µg/mL (≈ 4.29 µM)	47.4 mg/kg	2.7 mg/kg				
CC(=O)NC[C@H]1CN(c2ccc(-c3ccc(C(C)=O)cc3)cc2)C(=O)O1 [Example 4, (l)-N-[3-(4-(4'-Acetylphenyl)phenyl)-2-oxooxazolidin-5-ylmethyl]acetamide]	> 128 µg/mL	0.5 µg/mL (≈ 1.42 µM)	22 mg/kg	39.7 mg/kg				
CC(=O)NC[C@H]1CN(c2ccc(-c3ccncc3)cc2)C(=O)O1 [Example 85, (l)-N-[3-(4-(4-Pyridyl)phenyl)-2-oxooxazolidin-5-ylmethyl]acetamide]	> 128 µg/mL	< 0.13 µg/mL	1.3 mg/kg	0.5 mg/kg				
CSc1ccc(-c2ccc(N3C[C@H](CNC(C)=O)OC3=O)cc2)cc1 [Example 67, (l)-N-[3-(4-(4'-methylthiophenyl)phenyl)-2-oxooxazolidin-5-ylmethyl]acetamide]	> 128 µg/mL	0.25 µg/mL (≈ 0.701 µM)	4.5 mg/kg	30 mg/kg				
CC(=O)NC[C@H]1CN(c2ccc(-c3cccc([S+](C)[O-])c3)cc2)C(=O)O1 (single isomer, unassigned) [Example 65]	> 128 µg/mL	2 µg/mL (≈ 5.37 µM)		4.3 mg/kg				
CC(=O)NC[C@H]1CN(c2ccc(-c3ccc(-c4nn[nH]n4)cc3)cc2)C(=O)O1 [Example 38, (l)-N-[3-(4-(4'-(5-Tetrazolyl)phenyl)phenyl)-2-oxooxazolidin-5-ylmethyl]acetamide]	> 128 µg/mL	64 µg/mL (≈ 169 µM)		> 90 mg/kg				
CC(=O)NCC1CN(c2ccc(-c3ccc(S(C)(=O)=O)cc3)cc2)C(=O)O1 (centres unmarked) [Example 69, (l)-N-[3-(4-(4'-Methylsulfonylphenyl)phenyl)-2-oxooxazolidin-5-ylmethyl]acetamide]					> 128 µg/mL	0.25 µg/mL	4 mg/kg	1.2 mg/kg
CC(=O)NC[C@H]1CN(c2ccc(-c3csc(C)n3)cc2)C(=O)O1 [Example 132]	> 128 µg/mL	4 µg/mL (≈ 12.1 µM)		17 mg/kg				
CC(=O)NC[C@H]1CN(c2ccc(-c3ccnc(N)n3)cc2)C(=O)O1 [Example 135]	> 128 µg/mL	4 µg/mL (≈ 12.2 µM)	68 mg/kg					
CC(=O)NC[C@H]1CN(c2ccc(-c3ccc(C(C)=NOC(=O)CCC(=O)O)cc3)cc2)C(=O)O1 [Example 23, Sodium Salt of Succinate Hemiester of (l)-N-[3-(4-(4'-(1-Hydroxyiminoethyl)phenyl)phenyl)-2-oxooxazolidin-5-ylmethyl]acetamide]	> 128 µg/mL	1 µg/mL	17.3 mg/kg	24.3 mg/kg				
CC(=O)NC[C@H]1CN(c2ccc(-c3ccc(C(=O)CCN4CCN(C)CC4)cc3)cc2)C(=O)O1 [Example 60]	> 128 µg/mL	1 µg/mL (≈ 2.15 µM)	30 mg/kg	5.5 mg/kg				
CC(=O)NC[C@H]1CN(c2ccc(-c3ccc([S+](C)[O-])cc3)cc2)C(=O)O1 (single isomer, unassigned) [Example 68, (l)-N-[3-(4-(4'-methylsulfinylphenyl)phenyl)-2-oxooxazolidin-5-ylmethyl]acetamide]	> 128 µg/mL	0.25 µg/mL (≈ 0.671 µM)	2.2 mg/kg	0.7 mg/kg				
CC(=O)NC[C@H]1CN(c2ccc(-c3cccc([N+](=O)[O-])c3)cc2)C(=O)O1 [Example 119]	> 128 µg/mL	< 0.13 µg/mL	6.2 mg/kg	5 mg/kg				
CC(=O)NC[C@H]1CN(c2ccc(-c3ccc(C(=O)C(C)CN4CCN(C)CC4)cc3)cc2)C(=O)O1 (some centres unmarked) [Example 62]	> 128 µg/mL	2 µg/mL (≈ 4.18 µM)	51.9 mg/kg	10 mg/kg				
CC(=O)NC[C@H]1CN(c2ccc(-c3ccc[n+]([O-])c3)cc2)C(=O)O1 [Example 89]	> 128 µg/mL	2 µg/mL (≈ 6.11 µM)	2 mg/kg	< 3.3 mg/kg				
CC(=O)NC[C@H]1CN(c2ccc(-c3ccccc3)cc2)C(=O)O1 [Example 3, (l)-N-[3-(4-Phenylphenyl)-2-oxooxazolidin-5-ylmethyl]acetamide]	> 128 µg/mL	0.5 µg/mL (≈ 1.61 µM)	2.9 mg/kg	2 mg/kg				
CC(=O)NC[C@H]1CN(c2ccc(-c3ccc(C(O)CCN(C)C)cc3)cc2)C(=O)O1 (single isomer, unassigned) [Example 58, (l)-N-[3-(4-(4'-(3-N,N-Dimethylamino-1-hydroxypropyl)phenyl)phenyl)-2-oxooxazolidin-5-ylmethyl]acetamide]	> 128 µg/mL	1 µg/mL (≈ 2.43 µM)	13.8 mg/kg	2 mg/kg				
CC(=O)NC[C@H]1CN(c2ccc(-c3ccc(C(C)=NN4CCN(C)CC4)cc3)cc2)C(=O)O1 [Example 25, (l)-N-[3-(4-(4'-Acetylphenyl)phenyl)-2-oxooxazolidin-5-ylmethyl]acetamide 4-Methylpiperazinylhydrazone]	> 128 µg/mL	2 µg/mL (≈ 4.45 µM)	13.9 mg/kg	5.8 mg/kg				
CC(=O)NC[C@H]1CN(c2ccc(-c3csc(N)n3)cc2)C(=O)O1 [Example 134]	> 128 µg/mL	8 µg/mL (≈ 24.1 µM)	56.5 mg/kg	47 mg/kg				
CC(=O)NC[C@H]1CN(c2ccc(-c3ccc(C(=O)CCN(C)C)cc3)cc2)C(=O)O1 [Example 57, (l)-N-[3-(4-(4'-(3-N,N-dimethylaminopropionyl)phenyl)phenyl)-2-oxooxazolidin-5-ylmethyl]acetamide]	> 128 µg/mL	1 µg/mL (≈ 2.44 µM)	18 mg/kg	10 mg/kg				
CC(=O)NC[C@H]1CN(c2ccc(-c3ccc(CO)cc3)cc2)C(=O)O1 [Example 28]	> 128 µg/mL	< 0.13 µg/mL	52.6 mg/kg	30 mg/kg				
